Earlier results on three compounds are cited in patent publication US7115628B2, “Bridged piperidine derivatives as melanocortin receptor agonists” (Merck & Co., Inc., priority 2001, dated 2006).

Data set [1] deals with patients with erectile dysfunction. The following applies: for duration of effect / onset of action: after an oral dose; for share of men/patients in whom effective (adequate response): oral.
Data set [2] relates to males with psychogenic erectile dysfunction.
The mark [3] stands for this setting: subcutaneous injection formulation.

Regarding `CCCc1nn(C)c2c(=O)[nH]c(-c3cc(S(=O)(=O)N4CCN(C)CC4)ccc3OCC)nc12` [Sildenafil, sildenafil], in data set [1], the duration of effect result was “about 4 hours”, the onset of action is 30 to 60 min and the “share of men/patients in whom effective (adequate response)” value is on record as “about 70%”.

On to `Cc1ccc(N(CC2=NCCN2)c2cccc(O)c2)cc1` [phentolamine], for which, in data set [1], the duration of effect was 2 h, the onset of action is 5 to 30 min and the “share of men/patients in whom effective (adequate response)” value is 35–40%.

Regarding “Ac-Nle-c[Asp-His-DPhe-Arg-Trp-Lys]-NH2 [MT-II]”, the “absorption into the systemic circulation” value in data set [2] (in vivo, po) is given as “not absorbed into the systemic circulation”. In addition, the response rate in data set [2] (injected intramuscularly or subcutaneously) was 75%. For the same compound, in data set [2] (setting [3]), the duration of action result was “approximately 2.5 hours” and the “time to onset of erection” value is 10 to 20 min.
